The results in this text go back to patent US5004756A, “Anti-cancer activity potentiator” (priority 1988, dated 1991).

SMILES strings stand for the structures.

What is called IC50 is the concentration needed to halve the response being measured.

For data set [1], the system named is V79/S. Briefly: Colony formation (proliferation) inhibition, sensitive Chinese hamster cells (A-I Part 1). The conditions noted are these: Cricetulus griseus, 216 h; V79/S; 9 days; Table 1; read-out: IC50. It is filed as cell-based. In short, it runs like this: (§1)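 Cells seeded at 400 (sensitive) or 600 (resistant) per dish in Eagle's MEM with 10% bovine serum for 24 h; drugs added as ethanol solutions, then incubated a further 9 days. IC50 (micrograms/ml) is the concentration giving 50% inhibition of colony formation.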

The test system of data set [2] is V79/ADM. The data set is described as follows: Colony formation (proliferation) inhibition, ADM-resistant Chinese hamster cells (A-I Part 1). It is filed as cell-based. The conditions noted are these: Cricetulus griseus, 216 h; V79/ADM; 9 days; Table 1; read-out: IC50. The method, boiled down: as §1
The subject of data set [3] is PLC/S. The data set is described as follows: Colony formation (proliferation) inhibition, sensitive human hepatoma cells (A-I Part 1). It is filed as cell-based. The conditions noted are these: Homo sapiens, 216 h; PLC/S; 9 days; Table 1; read-out: IC50. How it is done: (§2) Sensitive cell line V79/S and ADM-resistant cell line V79/ADM of the Chinese hamster were used, and sensitive cell line PLC/S and cholchicin-resistant cell line PLC/Col, as human hepatoma cells.
(§3) The sensitive cell lines (400 cells) or the resistant cell lines (600 cells) were each incubated for 24 hours in 10 ml of Eagle's MEM medium containing 10% bovine serum. Each of the drugs indicated in Table 1 below was dissolved in ethanol, and 50 microliters of the resulting solution was added to the medium. The incubation was further carried out for 9 days. The concentration of the drug which inhibits 50% of the colony formation (proliferation) of the tumor cells was calculated.
(§4) V79/S and V79/ADM were tested by using all of the drugs described above, but PLC/S and PLC/Col were tested by using only the malate of formula (I), adriamycin and peplomycin.
(§5) The concentrations (micrograms/ml) required to inhibit 50% of the proliferation of the tumor cells, expressed by IC50, are shown in Table 1.

The subject of data set [4] is PLC/Col. Briefly: Colony formation (proliferation) inhibition, colchicin-resistant human hepatoma cells (A-I Part 1). The format is cell-based. The conditions noted are these: Homo sapiens, 216 h; PLC/Col; 9 days; Table 1; read-out: IC50. As for the experimental part:
as §2, §3, §4, §5

Data set [5] deals with clinically isolated human cancer cells (lung adenocarcinoma, lung squamous cell carcinoma, osteosarcoma, ovarian carcinoma). The data set is described as follows: Anti-tumor activity on clinically isolated human cancer cells, morphological changes (A-I Part 2). The conditions noted are these: 3 or 30 μg/ml (3 μg/ml for 3 examples, 30 μg/ml for 5). It is filed as cell-based.
Experimental: Lung adenocarcinoma, lung squamous cell carcinoma, osteosarcoma and ovarian carcinoma were selected as clinically isolated human cancer cells, and the anti-tumor activities of various drugs were examined. Specifically, various tumor tissues were individually cut to thin pieces by a razor, and by washing in saline by using a 1 mm mesh, the connective tissues were removed. The resulting solution was centrifuged at 1000 rpm for 1 minute to remove necrotizing substances. Washing with saline gave tumor cells.
They were incubated at 37° for 4 to 8 hours. Thereafter, pumping was carried out to disperse the tissue pieces. Then, centrifugation at 1000 rpm for 5 minutes, cell coating and Giemsa staining were performed. The anti-tumor activity of each drug was examined on the basis of observation of the morphological changes of the tumor cells under a microscope.
The experiment was conducted on two examples of each tumor cells (total 8 examples).
The subject of data set [6] is B16 melanoma cells. The data set is described as follows: Life prolongation of BDF1 mice with B16 melanoma (A-II Part 1). It is filed as in vivo, mouse (male BDF1). The conditions noted are these: 5 mg/kg i.p., three times every 4 days. How it is done:
Three to eight male BDF1 mice having a body weight of 20±3 g were used, and B16 melanoma cells were selected as tumor cells. The melanoma cells were homogenized, and the homogenate was transplanted subcutaneously to the mice in an amount of 0.5 ml/mouse. After 7 days, the malate of formula (I) in accordance with this invention and an anti-cancer agent, neocartinostatin (NCS), were intraperitoneally administered either singly or in combination three times every 4 days in a dose of 5 mg/kg and 0.45 mg/kg for each time. The life prolonging rate of the mice was determined by the treated group/non-treated control group (T/C %).

Data set [7] relates to V79/S. The data set is described as follows: Anti-cancer activity potentiating action, colony formation, V79/S parent cells (A-III). It is filed as cell-based, Chinese hamster. The conditions noted are these: Cricetulus griseus; V79/S; alone; Table 6; read-out: IC50, anti-cancer agent alone. The method, boiled down: (§6)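 Chinese hamster V79/S (400 cells) and ADM-resistant V79/ADM (600 cells) were preincubated 24 h in Eagle's MEM with 10% bovine serum, then given anti-cancer agents plus the malate of formula (I): 10 μg/ml for sensitive cells, 3, 5 or 10 μg/ml for resistant cells. After 9 days' incubation, IC50 (μg/ml) for colony formation was calculated.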

In data set [8] the test system is V79/ADM. The data set is described as follows: Anti-cancer activity potentiating action, colony formation, V79/ADM resistant cells (A-III). The format is cell-based, Chinese hamster. The conditions noted are these: Cricetulus griseus; V79/ADM; alone; Table 6; read-out: IC50, anti-cancer agent alone. The method, boiled down: as §6
For data set [9], the system named is PLC/S. Briefly: Anti-cancer activity potentiating action, colony formation, PLC/S parent cells (A-III). The format is cell-based, human. The conditions noted are these: Homo sapiens; PLC/S; alone; Table 7; read-out: IC50, anti-cancer agent alone. As for the experimental part: (§7) The anti-cancer activity potentiating action of the malate of formula (I) was examined using Chinese hamster cells (sensitive cell line V79/S and ADM-resistant cell line V79/ADM), human hepatoma cells (sensitive cell line PLC/S and colchicin-resistant cell line PLC/Col) and mouse leukemia cells (sensitive cell line L5178Y/S) and aclarubicin-resistant cell line L5178Y/ACR).
(§8) Of these tumor cells, the sensitive cells (400 cells) and the resistant cells (600 cells) were each incubated in 10 ml of Eagle's MEM medium containing 10% bovine serum for 24 hours, and then each of the test drugs indicated in Table 6 was added. Thereafter, the incubation was carried out for 9 days. The concentration (IC50 : micrograms/ml) of the test drug required to inhibit 50% of the colony formation (proliferation) of the tumor cells was calculated.
(§9) As anti-cancer agents, adriamycin (ADM) and peplomycin (PEP) were used in combination with the malate of formula (I) (5 micrograms/ml).

Data set [10] deals with PLC/Col. Briefly: Anti-cancer activity potentiating action, colony formation, PLC/Col resistant cells (A-III). The format is cell-based, human. The conditions noted are these: Homo sapiens; PLC/Col; alone; Table 7; read-out: IC50, anti-cancer agent alone. How it is done: as §7, §8, §9
The subject of data set [11] is Meth-A. The data set is described as follows: Tumor proliferation inhibiting activity, Meth-A (A-IV). The conditions noted are these: for Number of surviving animals: 16 days later; for T/C (tumor weight) / Tumor weight mean ± S.D.: day 16. The format is in vivo, BALB/c rats. As for the experimental part: Female BALB/c rats (7 weeks old), 8 per group, were used. Tumor cells (Meth-A) induced by methyl cholanthrene were transplanted intraperitoneally to the rats, and then the malate of formula (I) was administered intraperitoneally to the rats. The proliferation inhibiting activity of the malate was examined by comparing the weight of the tumor cells with that of the tumor cells in the non-treated control group.
The dose of the malate of formula (I) was 1.25, 2.5, 5.0, and 10.0 mg/kg/day. Mitomycin C (MMC) was administered as another anti-cancer agent. The weight of the tumor cells was measured, and the proliferation inhibiting activity was determined.
The weight (g) of the tumor with respect to that of the tumor in the control group (T/C, %) after 16 days from the transplantation of the tumor cells, and the number of surviving rats after 16 days are shown in Table 8.

The nature of data set [12]: Acute toxicity test in mice, oral. The format is in vivo, mouse. The conditions noted are these: oral, 2,000 mg/kg. How it is done:
Using mice, the malate of formula (I) obtained as above was tested for toxicity. […] Toxicity was neither noted.

The mark [13] stands for this setting: 1.25 mg/kg/day i.p., days 1, 3, 5.
Setting [14] is: 2.5 mg/kg/day i.p., days 1, 3, 5.

As to `COc1ccc(CNCCN(CC=C(C)CCC=C(C)CCC=C(C)CCC=C(C)CCC=C(C)CCC=C(C)CCC=C(C)CCC=C(C)CCC=C(C)C)Cc2ccc(OC)c(OC)c2)cc1OC` [Compound (I), N-solanesyl-N,N'-bis(3,4-dimethoxybenzyl)ethylenediamine malate], the IC50 in data set [1] was determined as 11.5 µg/mL; in data set [2], 3 µg/mL; in data set [3] it was 6.8 µg/mL; in [4] it was 1.7 µg/mL; in [7], 11.5 µg/mL; in [8] it was 3 µg/mL. Besides, the half-inhibitory concentration (IC50) was 6.8 µg/mL in data set [9] and 1.7 µg/mL in data set [10]. In addition, the “Efficacy ratio (rated significant by Fisher's test)” value in data set [5] is 5/8. In addition, in data set [6], the “T/C (life prolonging rate at M.S.T.)” value came to 165%. The “Number of surviving animals” value in data set [11] (setting [13]) was 8/8; in data set [11] (setting [14]), 8/8; in [11] (5.0 mg/kg/day i.p., day 1), 8/8; in data set [11] (10.0 mg/kg/day i.p., day 1), 8/8. The “T/C (tumor weight)” value in data set [11] (setting [13]) was 75%; in data set [11] (setting [14]), 79%; in data set [11] (5.0 mg/kg/day i.p., day 1), 83%; in [11] (10.0 mg/kg/day i.p., day 1) it was 65%. The “Tumor weight mean ± S.D.” value in data set [11] (setting [13]) is recorded as 1.255 ± 0.533 g; in [11] (setting [14]), 1.327 ± 0.350 g; in data set [11] (5.0 mg/kg/day i.p., day 1), 1.389 ± 0.644 g; in data set [11] (10.0 mg/kg/day i.p., day 1) it was 1.091 ± 0.659 g. Besides, the “Acute toxicity, abnormality in mice” value in data set [12] is on record as “no abnormality was found”.
